Target: HiBit-WIZ fusion protein (Homo sapiens, UniProt O95785+Q96SW2)
Assay: Quantification of WIZ protein levels in HiBit tag fusion protein assay (WIZ HiBit assay in 293T cells)
Assay type: cell-based
Parameters: Dmax: dose or concentration left out as unconfirmed
Conditions: for Dmax / remaining activity at up to 25 µM: HEK-293T, 293T cells; for Dmax: 100 minus Amax, read-out: % degradation of WIZ (100-Amax); for remaining activity at up to 25 µM: DMSO-normalized, curve-fitted percentage of WIZ-HiBit remaining at 25 uM, read-out: WIZ Amax; for DC50: WIZ HiBit assay in 293T cells, 10-point, 5-fold dose response, highest concentration 25 μM, about 18 hours, read-out: WIZ AC50

HiBit-WIZ fusion protein, sequence (O95785 whole entry, the tested form may be a part): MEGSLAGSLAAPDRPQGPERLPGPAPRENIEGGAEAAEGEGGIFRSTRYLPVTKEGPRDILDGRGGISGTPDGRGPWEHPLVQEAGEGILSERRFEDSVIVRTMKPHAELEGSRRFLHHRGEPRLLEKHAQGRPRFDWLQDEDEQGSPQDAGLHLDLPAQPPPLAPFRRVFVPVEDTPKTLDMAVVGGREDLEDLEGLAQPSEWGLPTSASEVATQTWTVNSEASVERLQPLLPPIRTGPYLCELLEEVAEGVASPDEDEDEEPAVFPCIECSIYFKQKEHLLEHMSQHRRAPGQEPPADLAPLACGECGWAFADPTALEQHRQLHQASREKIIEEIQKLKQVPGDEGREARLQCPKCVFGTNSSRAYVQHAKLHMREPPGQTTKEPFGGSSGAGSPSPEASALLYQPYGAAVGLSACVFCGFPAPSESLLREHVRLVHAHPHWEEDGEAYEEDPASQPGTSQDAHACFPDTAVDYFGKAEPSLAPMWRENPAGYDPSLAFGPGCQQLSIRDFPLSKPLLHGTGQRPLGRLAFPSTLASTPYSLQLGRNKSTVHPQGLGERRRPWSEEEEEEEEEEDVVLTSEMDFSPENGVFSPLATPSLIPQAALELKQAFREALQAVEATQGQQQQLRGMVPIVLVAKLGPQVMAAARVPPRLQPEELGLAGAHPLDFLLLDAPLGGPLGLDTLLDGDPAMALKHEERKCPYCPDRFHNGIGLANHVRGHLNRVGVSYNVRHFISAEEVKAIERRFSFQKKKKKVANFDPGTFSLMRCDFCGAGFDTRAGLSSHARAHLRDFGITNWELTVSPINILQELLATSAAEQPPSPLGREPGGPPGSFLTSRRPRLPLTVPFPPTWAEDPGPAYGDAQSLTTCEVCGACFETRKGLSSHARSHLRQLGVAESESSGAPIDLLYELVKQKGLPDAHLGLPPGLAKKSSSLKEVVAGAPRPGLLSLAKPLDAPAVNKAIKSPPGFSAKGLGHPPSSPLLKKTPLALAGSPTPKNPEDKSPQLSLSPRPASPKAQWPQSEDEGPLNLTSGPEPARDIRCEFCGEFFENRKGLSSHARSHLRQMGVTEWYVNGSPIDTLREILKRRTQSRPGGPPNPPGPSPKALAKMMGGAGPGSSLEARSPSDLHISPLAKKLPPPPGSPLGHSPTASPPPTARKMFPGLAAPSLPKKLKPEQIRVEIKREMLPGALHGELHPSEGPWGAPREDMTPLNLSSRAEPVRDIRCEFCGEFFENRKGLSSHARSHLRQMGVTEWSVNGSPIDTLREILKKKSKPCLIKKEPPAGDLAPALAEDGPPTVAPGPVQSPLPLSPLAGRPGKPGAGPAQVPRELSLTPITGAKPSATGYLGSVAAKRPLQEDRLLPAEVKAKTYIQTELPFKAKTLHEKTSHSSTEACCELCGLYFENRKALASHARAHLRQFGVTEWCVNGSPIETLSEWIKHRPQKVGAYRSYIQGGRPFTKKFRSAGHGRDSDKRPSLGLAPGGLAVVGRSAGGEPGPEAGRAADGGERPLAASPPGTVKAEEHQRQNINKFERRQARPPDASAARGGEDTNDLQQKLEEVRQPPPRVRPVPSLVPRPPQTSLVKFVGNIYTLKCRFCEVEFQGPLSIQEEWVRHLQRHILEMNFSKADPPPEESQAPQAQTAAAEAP
HiBit-WIZ fusion protein, sequence (Q96SW2 whole entry, the tested form may be a part): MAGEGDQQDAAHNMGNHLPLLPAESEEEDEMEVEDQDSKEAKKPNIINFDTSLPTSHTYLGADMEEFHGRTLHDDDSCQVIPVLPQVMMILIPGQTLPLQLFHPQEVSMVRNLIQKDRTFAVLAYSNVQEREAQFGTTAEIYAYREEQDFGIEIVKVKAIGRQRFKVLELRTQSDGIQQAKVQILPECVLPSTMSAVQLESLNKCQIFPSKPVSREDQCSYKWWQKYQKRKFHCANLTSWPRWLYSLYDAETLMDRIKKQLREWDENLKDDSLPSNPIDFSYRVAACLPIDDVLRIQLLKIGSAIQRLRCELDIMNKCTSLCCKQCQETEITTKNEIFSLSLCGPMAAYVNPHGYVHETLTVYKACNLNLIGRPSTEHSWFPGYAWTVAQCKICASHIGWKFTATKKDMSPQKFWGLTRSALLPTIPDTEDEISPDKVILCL
HiBit-WIZ fusion protein, sequence (Q16531 whole entry partner, the tested form may be a part): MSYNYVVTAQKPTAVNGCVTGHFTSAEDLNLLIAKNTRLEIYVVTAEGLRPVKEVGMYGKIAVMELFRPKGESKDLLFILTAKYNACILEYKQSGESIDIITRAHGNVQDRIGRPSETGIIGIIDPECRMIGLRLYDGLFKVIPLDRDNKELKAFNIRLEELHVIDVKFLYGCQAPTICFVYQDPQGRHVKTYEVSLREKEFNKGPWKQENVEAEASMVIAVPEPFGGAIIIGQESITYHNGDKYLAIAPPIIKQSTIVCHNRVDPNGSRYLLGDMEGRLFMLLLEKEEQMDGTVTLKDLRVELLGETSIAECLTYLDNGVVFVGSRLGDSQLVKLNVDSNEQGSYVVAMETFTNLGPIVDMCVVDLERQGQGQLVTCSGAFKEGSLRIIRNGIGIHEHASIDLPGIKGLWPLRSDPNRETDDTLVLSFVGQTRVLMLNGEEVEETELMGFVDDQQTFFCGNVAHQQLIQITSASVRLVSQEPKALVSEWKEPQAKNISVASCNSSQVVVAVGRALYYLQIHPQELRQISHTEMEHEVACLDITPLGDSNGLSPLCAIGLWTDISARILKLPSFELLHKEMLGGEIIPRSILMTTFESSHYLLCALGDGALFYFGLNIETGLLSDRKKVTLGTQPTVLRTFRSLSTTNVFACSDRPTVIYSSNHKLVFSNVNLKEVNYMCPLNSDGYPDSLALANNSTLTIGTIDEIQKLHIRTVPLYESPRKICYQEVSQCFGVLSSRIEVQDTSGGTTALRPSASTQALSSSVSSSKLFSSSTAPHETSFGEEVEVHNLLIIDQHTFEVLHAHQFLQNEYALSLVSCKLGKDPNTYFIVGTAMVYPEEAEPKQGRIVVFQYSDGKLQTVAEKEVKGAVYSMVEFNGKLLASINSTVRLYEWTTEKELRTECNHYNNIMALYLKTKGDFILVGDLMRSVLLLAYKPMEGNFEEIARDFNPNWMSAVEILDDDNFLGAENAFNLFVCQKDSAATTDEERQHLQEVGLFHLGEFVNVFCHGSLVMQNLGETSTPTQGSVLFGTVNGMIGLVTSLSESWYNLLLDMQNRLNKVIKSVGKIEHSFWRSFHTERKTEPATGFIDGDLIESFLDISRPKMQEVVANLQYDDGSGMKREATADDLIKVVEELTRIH

Row | Dmax [%] | remaining activity at up to 25 µM [%] | DC50 [µM] | SMILES
1 | 22 | 78 | > 25 | O=C1CCC(N2Cc3cc(OC[C@@H]4CCCCN4Cc4cc(-n5nnnc5C(F)(F)F)ccc4O)ccc3C2=O)C(=O)N1 (stereo partly drawn) [Compound I-50x]
2 | 85.2 | 14.8 | 0.179 | Cn1nnc2cc(CN3CCCC[C@@H]3COc3ccc4c(c3)CN(C3CCC(=O)NC3=O)C4=O)ccc21 (stereo partly drawn) [Compound I-50y]
3 | 79.2 | 20.8 | 3.2 | CN(C)Cc1ncc(-c2ccc(Oc3cc(Cl)cnc3CN3CCCC[C@H]3COc3ccc4c(c3)CN(C3CCC(=O)NC3=O)C4=O)cc2)n1C (stereo partly drawn) [Compound I-50z]
4 | 21.5 | 78.5 | > 25 | CCN1CCOC[C@H]1COc1ccc2c(c1)CN(C1CCC(=O)NC1=O)C2=O (stereo partly drawn) [Compound I-64, 3-(5-(((S)-4-ethylmorpholin-3-yl)methoxy)-1-oxoisoindolin-2-yl)piperidine-2,6-dione]
5 | 11.2 | 88.8 | > 25 | O=C1CCC(N2Cc3cc(OC[C@@H]4CCCCN4C(=O)c4cccc(S(=O)(=O)O)c4)ccc3C2=O)C(=O)N1 (stereo partly drawn) [Compound I-72a]
6 | 52.8 | 47.2 | 17.4 | O=C1CCC(N2Cc3cc(OC[C@@H]4CCCCN4C(=O)c4ccc(Cl)c(I)c4)ccc3C2=O)C(=O)N1 (stereo partly drawn) [Compound I-72ad]
7 | 14.7 | 85.3 | > 25 | O=C1CCC(N2Cc3cc(OC[C@@H]4CCCCN4C(=O)c4cccc(N5CCOCC5)n4)ccc3C2=O)C(=O)N1 (stereo partly drawn) [Compound I-72ae]
8 | 7.7 | 92.3 | > 25 | O=C1CCC(N2Cc3cc(OC[C@@H]4CCCCN4C(=O)Cc4cc[nH]n4)ccc3C2=O)C(=O)N1 (stereo partly drawn) [Compound I-72af]
9 | 5.4 | 94.6 | > 25 | CC(Oc1ccccc1Cl)C(=O)N1CCCC[C@H]1COc1ccc2c(c1)CN(C1CCC(=O)NC1=O)C2=O (stereo partly drawn) [Compound I-72ag]
10 | 22.9 | 77.1 | > 25 | CCc1ocnc1C(=O)N1CCCC[C@H]1COc1ccc2c(c1)CN(C1CCC(=O)NC1=O)C2=O (stereo partly drawn) [Compound I-72ah]
11 | 41.6 | 58.4 | > 25 | COc1ccc(-c2cc(C(=O)N3CCCC[C@H]3COc3ccc4c(c3)CN(C3CCC(=O)NC3=O)C4=O)[nH]n2)cc1 (stereo partly drawn) [Compound I-72ai]
12 | 78.9 | 21.1 | 0.686 | O=C1CCC(N2Cc3cc(OC[C@@H]4CCCCN4C(=O)c4cc(-c5ccc(Br)cc5)on4)ccc3C2=O)C(=O)N1 (stereo partly drawn) [Compound I-72ak]
13 | 53.8 | 46.2 | 13.8 | O=C1CCC(N2Cc3cc(OC[C@@H]4CCCCN4C(=O)c4ccc(N5CCOCC5)cc4)ccc3C2=O)C(=O)N1 (stereo partly drawn) [Compound I-72an]
14 | 8.3 | 91.7 | > 25 | Cn1ccc(C(=O)N2CCCC[C@H]2COc2ccc3c(c2)CN(C2CCC(=O)NC2=O)C3=O)cc1=O (stereo partly drawn) [Compound I-72ao]
15 | 71.8 | 28.2 | 2.57 | Cc1noc(-c2ccc(C(=O)N3CCCC[C@H]3COc3ccc4c(c3)CN(C3CCC(=O)NC3=O)C4=O)cc2)n1 (stereo partly drawn) [Compound I-72ar]
16 | 39.9 | 60.1 | > 25 | CCCc1cc(C(=O)N2CCCC[C@H]2COc2ccc3c(c2)CN(C2CCC(=O)NC2=O)C3=O)no1 (stereo partly drawn) [Compound I-72au]
17 | 24.3 | 75.7 | > 25 | O=C1CCC(N2Cc3cc(OC[C@@H]4CCCCN4C(=O)c4cccc(N5CCCCC5)n4)ccc3C2=O)C(=O)N1 (stereo partly drawn) [Compound I-72av]
18 | 60.4 | 39.6 | 8.52 | CCCCc1cnc(C(=O)N2CCCC[C@H]2COc2ccc3c(c2)CN(C2CCC(=O)NC2=O)C3=O)nc1OC (stereo partly drawn) [Compound I-72aw]
19 | 17.6 | 82.4 | > 25 | CCc1cncc(C(=O)N2CCCC[C@H]2COc2ccc3c(c2)CN(C2CCC(=O)NC2=O)C3=O)c1 (stereo partly drawn) [Compound I-72ay]
20 | 3 | 97 | > 25 | COc1ccncc1C(=O)N1CCCC[C@H]1COc1ccc2c(c1)CN(C1CCC(=O)NC1=O)C2=O (stereo partly drawn) [Compound I-72bc]
21 | 11.8 | 88.2 | > 25 | CC(C)(C#N)c1cc(C(=O)N2CCCC[C@H]2COc2ccc3c(c2)CN(C2CCC(=O)NC2=O)C3=O)ccn1 (stereo partly drawn) [Compound I-72be]
22 | 3.9 | 96.1 | > 25 | O=C1CCC(N2Cc3cc(OC[C@@H]4CCCCN4C(=O)c4cccc(Cn5cncn5)c4)ccc3C2=O)C(=O)N1 (stereo partly drawn) [Compound I-72bi]
23 | 52 | 48 | 19.8 | Cc1c(-c2ccccc2)n[nH]c1C(=O)N1CCCC[C@H]1COc1ccc2c(c1)CN(C1CCC(=O)NC1=O)C2=O (stereo partly drawn) [Compound I-72by]

Row | Dmax [%] | remaining activity at up to 25 µM [%] | DC50 [µM] | SMILES
24 | 46.7 | 53.3 | > 25 | CC(C)(C)Cc1cc(C(=O)N2CCCC[C@H]2COc2ccc3c(c2)CN(C2CCC(=O)NC2=O)C3=O)no1 (stereo partly drawn) [Compound I-72bz]
25 | 20.6 | 79.4 | > 25 | O=C1CCC(N2Cc3cc(OC[C@@H]4CCCCN4C(=O)c4cnnn4-c4ccccc4)ccc3C2=O)C(=O)N1 (stereo partly drawn) [Compound I-72c]
26 | 10.2 | 89.8 | > 25 | O=C1CCC(N2Cc3cc(OC[C@@H]4CCCCN4C(=O)CCN4CCOCC4)ccc3C2=O)C(=O)N1 (stereo partly drawn) [Compound I-72ca]
27 | 35 | 65 | > 25 | CC(C)c1cc(C(=O)N2CCCC[C@H]2COc2ccc3c(c2)CN(C2CCC(=O)NC2=O)C3=O)no1 (stereo partly drawn) [Compound I-72cf]
28 | 2.2 | 97.8 | > 25 | Cc1n[nH]c(CC(=O)N2CCCC[C@H]2COc2ccc3c(c2)CN(C2CCC(=O)NC2=O)C3=O)n1 (stereo partly drawn) [Compound I-72cg]
29 | 12.1 | 87.9 | > 25 | CCN(CC)CC(=O)N1CCCC[C@H]1COc1ccc2c(c1)CN(C1CCC(=O)NC1=O)C2=O (stereo partly drawn) [Compound I-72cp]
30 | 31.1 | 68.9 | > 25 | COc1cccc2c(C(=O)N3CCCC[C@H]3COc3ccc4c(c3)CN(C3CCC(=O)NC3=O)C4=O)c[nH]c12 (stereo partly drawn) [Compound I-72cq]
31 | 15.2 | 84.8 | > 25 | O=C1CCC(N2Cc3cc(OC[C@@H]4CCCCN4C(=O)[C@H]4CCN(Cc5ccccc5)C4)ccc3C2=O)C(=O)N1 (stereo partly drawn) [Compound I-72cy]
32 | 71.6 | 28.4 | 1.9 | COc1ccc(C(=O)N2CCCC[C@H]2COc2ccc3c(c2)CN(C2CCC(=O)NC2=O)C3=O)cc1OCc1ccccc1 (stereo partly drawn) [Compound I-72d]
33 | 19.5 | 80.5 | > 25 | CN1CCCC1C(=O)N1CCCC[C@@H]1COc1ccc2c(c1)CN(C1CCC(=O)NC1=O)C2=O (stereo partly drawn) [Compound I-72dd]
34 | 21.1 | 78.9 | > 25 | CC(C)n1cc(C(=O)N2CCCC[C@H]2COc2ccc3c(c2)CN(C2CCC(=O)NC2=O)C3=O)cn1 (stereo partly drawn) [Compound I-72dg]
35 | 11.5 | 88.5 | > 25 | O=C1CCC(N2Cc3cc(OC[C@@H]4CCCCN4C(=O)C=C4CCCCC4)ccc3C2=O)C(=O)N1 (stereo partly drawn) [Compound I-72dm]
36 | 23.3 | 76.7 | > 25 | C[C@H]1CC[C@H](CC(=O)N2CCCC[C@H]2COc2ccc3c(c2)CN(C2CCC(=O)NC2=O)C3=O)CC1 (stereo partly drawn) [Compound I-72do]
37 | 30.5 | 69.5 | > 25 | CC(C)c1cc(C(=O)N2CCCC[C@H]2COc2ccc3c(c2)CN(C2CCC(=O)NC2=O)C3=O)on1 (stereo partly drawn) [Compound I-72dp]
38 | 47.2 | 52.8 | > 25 | O=C1CCC(N2Cc3cc(OC[C@@H]4CCCCN4C(=O)c4ncn(-c5ccccc5)n4)ccc3C2=O)C(=O)N1 (stereo partly drawn) [Compound I-72dt]
39 | 23.6 | 76.4 | > 25 | O=C1CCC(N2Cc3cc(OC[C@@H]4CCCCN4C(=O)c4csc(-c5ccccc5)n4)ccc3C2=O)C(=O)N1 (stereo partly drawn) [Compound I-72du]
40 | 13.3 | 86.7 | > 25 | O=C1CCC(N2Cc3cc(OC[C@@H]4CCCCN4C(=O)c4ccccc4OC(F)(F)F)ccc3C2=O)C(=O)N1 (stereo partly drawn) [Compound I-72dv]
41 | 17.1 | 82.9 | > 25 | O=C1CCC(N2Cc3cc(OC[C@@H]4CCCCN4C(=O)c4csc(N5CCOCC5)n4)ccc3C2=O)C(=O)N1 (stereo partly drawn) [Compound I-72e]
42 | 4.6 | 95.4 | > 25 | O=C1CCC(N2Cc3cc(OC[C@@H]4CCCCN4C(=O)[C@@H]4CCC(=O)N4Cc4ccccc4)ccc3C2=O)C(=O)N1 (stereo partly drawn) [Compound I-72ed]
43 | 72.1 | 27.9 | 2.25 | COc1c(F)cc(C(=O)N2CCCC[C@H]2COc2ccc3c(c2)CN(C2CCC(=O)NC2=O)C3=O)cc1F (stereo partly drawn) [Compound I-72eg]
44 | 21 | 79 | > 25 | CCc1cc(C(=O)N2CCCC[C@H]2COc2ccc3c(c2)CN(C2CCC(=O)NC2=O)C3=O)on1 (stereo partly drawn) [Compound I-72ek]
45 | 4.8 | 95.2 | > 25 | O=C1CCC(N2Cc3cc(OC[C@@H]4CCCCN4C(=O)CCC(=O)N4CCOCC4)ccc3C2=O)C(=O)N1 (stereo partly drawn) [Compound I-72eo]

Source: patent publication US11566022B2, “3-(5-methoxy-1-oxoisoindolin-2-yl)piperidine-2,6-dione derivatives and uses thereof” (NOVARTIS AG, priority 2019, dated 2023)
